These compounds were tested on MV4-11 cells (assay: Cell proliferation assay (ATPlite)). Conditions: Homo sapiens, MV4-11, 120 h; MV-411 cells, five days; read-out: In vitro whole cell potency in MV-411 cells, (IC50).
Format: cell-based
Description: (iv) Cell Proliferation Assay
MV4-11 cells were seeded into a 96-well plate at 1,000 cells/well in 150 μl medium (Alpha-MEM containing 10% FBS, 100 μg/ml Normocin, and 50 μg/ml Gentamycin, Invitrogen). A HP D300 digital dispenser was used to dose cells with DMSO or test compounds across a 10-point range of concentrations (high dose of 10 μM), and cultures were grown in a humidified 5% CO2 incubator at 37° C. After five days, plates were removed from the incubator and equilibrated to room temperature. An equal volume of ATPlite assay reagent was added to each well, and samples were processed according to manufacturer's instructions (Perkin Elmer). Luminescent signal was measured using an Envision plate reader equipped with a US-Luminescence detector.

Question: `CN1CCN(c2cc(F)ccc2NC(=O)c2c[nH]c(=O)cc2C(F)(F)F)CC1` [Example 24, N-[4-fluoro-2-(4-methylpiperazin-1-yl)phenyl]-6-oxo-4-(trifluoromethyl)-1H-pyridine-3-carboxamide] was tested. Which IC50 did it give?
Answer: > 10000 nM

Question: For `Cc1cc(C(=O)Nc2cc(-c3cnc(N4CCOCC4)nc3)c(F)cc2N2C[C@@H](C)N(C)[C@@H](C)C2)ccc1F` [Example 25, 4-fluoro-N-[4-fluoro-5-(2-morpholin-4-ylpyrimidin-5-yl)-2-[(3R,5S)-3,4,5-trimethylpiperazin-1-yl]phenyl]-3-methylbenzamide], which IC50 is on record?
Answer: > 10000 nM

Question: Which IC50 does the source give for `C[C@@H]1CN(c2cc(F)ccc2NC(=O)c2c[nH]c(=O)cc2C(F)(F)F)C[C@H](C)N1C` [Example 26, N-[4-fluoro-2-[(3R,5S)-3,4,5-trimethylpiperazin-1-yl]phenyl]-6-oxo-4-(trifluoromethyl)-1H-pyridine-3-carboxamide] here?
Answer: > 10000 nM

Question: With `Cc1cc(C(=O)Nc2cc(-c3cnc(N4CCOCC4)nc3)c(F)cc2N2C[C@@H](C)N(C)[C@@H](C)C2)cc(C)c1F` [Example 28, 4-fluoro-N-[4-fluoro-5-(2-morpholin-4-ylpyrimidin-5-yl)-2-[(3R,5S)-3,4,5-trimethylpiperazin-1-yl]phenyl]-3,5-dimethylbenzamide] as the compound, how does the IC50 read?
Answer: 2760 nM

Question: For `C[C@@H]1CN(c2cc(F)c(-c3ccc(N4CCOCC4)cc3)cc2NC(=O)c2c[nH]c(=O)cc2C(F)(F)F)C[C@H](C)N1C` [Example 29, N-[4-fluoro-5-(4-morpholin-4-ylphenyl)-2-[(3R,5S)-3,4,5-trimethylpiperazin-1-yl]phenyl]-6-oxo-4-(trifluoromethyl)-1H-pyridine-3-carboxamide], which IC50 is on record?
Answer: 45 nM

Question: For `CN1CCN(c2cc(F)c(-c3ccc(OC4CCOCC4)nc3)cc2NC(=O)c2c[nH]c(=O)cc2C(F)(F)F)CC1` [Example 30, N-[4-fluoro-2-(4-methylpiperazin-1-yl)-5-[6-(oxan-4-yloxy)pyridin-3-yl]phenyl]-6-oxo-4-(trifluoromethyl)-1H-pyridine-3-carboxamide], which IC50 is on record?
Answer: 210 nM

Question: `C[C@@H]1CN(c2cc(F)c(-c3cnc(C#N)nc3)cc2NC(=O)c2c[nH]c(=O)cc2C(F)(F)F)C[C@H](C)N1C` [Example 31, N-[5-(2-cyanopyrimidin-5-yl)-4-fluoro-2-[(3S,5R)-3,4,5-trimethylpiperazin-1-yl]phenyl]-6-oxo-4-(trifluoromethyl)-1H-pyridine-3-carboxamide] was tested. Which IC50 did it give?
Answer: 571 nM

Question: With `C[C@@H]1CN(c2cc(F)c(-c3ccc(N4CCOCC4)nc3)cc2NC(=O)c2c[nH]c(=O)cc2C(F)(F)F)C[C@H](C)N1C` [Example 32, N-[4-fluoro-5-(6-morpholin-4-ylpyridin-3-yl)-2-[(3S,5R)-3,4,5-trimethylpiperazin-1-yl]phenyl]-6-oxo-4-(trifluoromethyl)-1H-pyridine-3-carboxamide] as the compound, how does the IC50 read?
Answer: 67 nM

Question: How did the IC50 turn out when `Cc1ncc(-c2cc(NC(=O)c3c[nH]c(=O)cc3C(F)(F)F)c(N3C[C@@H](C)N(C)[C@@H](C)C3)cc2F)cn1` [Example 33, N-[4-fluoro-5-(2-methylpyrimidin-5-yl)-2-[(3S,5R)-3,4,5-trimethylpiperazin-1-yl]phenyl]-6-oxo-4-(trifluoromethyl)-1H-pyridine-3-carboxamide] was run?
Answer: 72 nM

Question: Which IC50 does the source give for `C[C@@H]1CN(c2cc(F)c(-c3cnc(N4CCOCC4)nc3)cc2NC(=O)c2c[nH]c(=O)cc2C(F)F)C[C@H](C)N1C` [Example 34, 4-(difluoromethyl)-N-[4-fluoro-5-(2-morpholin-4-ylpyrimidin-5-yl)-2-[(3S,5R)-3,4,5-trimethylpiperazin-1-yl]phenyl]-6-oxo-1H-pyridine-3-carboxamide] here?
Answer: 38 nM

Question: With `C[C@@H]1CN(c2cc(F)c(-c3cccnc3)cc2NC(=O)c2c[nH]c(=O)cc2C(F)(F)F)C[C@H](C)N1C` [Example 35, N-[4-fluoro-5-pyridin-3-yl-2-[(3R,5S)-3,4,5-trimethylpiperazin-1-yl]phenyl]-6-oxo-4-(trifluoromethyl)-1H-pyridine-3-carboxamide] as the compound, how does the IC50 read?
Answer: 669 nM
